Reference: article PMC3486420, “In Vitro and In Vivo Characterizations of Chiglitazar, a Newly Identified PPAR Pan-Agonist” (PPAR Research, 2012)

Columns and labels:
PPARδ [1] = target: T1, PPARδ (Homo sapiens, UniProt Q03181); experiment: PPARδ transactivation reporter gene assay in U2OS cells; assay type: cell-based
T1 construct: expressed in transfected cells; host or cells: SMMC-7721 or U2OS
T1 sequence (Q03181 1-441): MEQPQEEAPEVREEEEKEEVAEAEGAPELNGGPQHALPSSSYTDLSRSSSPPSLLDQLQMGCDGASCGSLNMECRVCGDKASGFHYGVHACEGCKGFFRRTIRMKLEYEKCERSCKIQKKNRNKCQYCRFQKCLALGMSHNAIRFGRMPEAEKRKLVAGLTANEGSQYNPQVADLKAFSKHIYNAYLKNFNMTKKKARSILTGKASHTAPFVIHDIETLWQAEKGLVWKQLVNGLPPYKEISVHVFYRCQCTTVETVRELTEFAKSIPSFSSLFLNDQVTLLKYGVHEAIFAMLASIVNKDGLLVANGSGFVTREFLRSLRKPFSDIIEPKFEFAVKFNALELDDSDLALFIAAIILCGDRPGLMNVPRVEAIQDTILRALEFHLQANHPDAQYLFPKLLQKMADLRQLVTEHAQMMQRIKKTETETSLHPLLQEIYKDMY
T1 sequence (P19793 1-462 partner): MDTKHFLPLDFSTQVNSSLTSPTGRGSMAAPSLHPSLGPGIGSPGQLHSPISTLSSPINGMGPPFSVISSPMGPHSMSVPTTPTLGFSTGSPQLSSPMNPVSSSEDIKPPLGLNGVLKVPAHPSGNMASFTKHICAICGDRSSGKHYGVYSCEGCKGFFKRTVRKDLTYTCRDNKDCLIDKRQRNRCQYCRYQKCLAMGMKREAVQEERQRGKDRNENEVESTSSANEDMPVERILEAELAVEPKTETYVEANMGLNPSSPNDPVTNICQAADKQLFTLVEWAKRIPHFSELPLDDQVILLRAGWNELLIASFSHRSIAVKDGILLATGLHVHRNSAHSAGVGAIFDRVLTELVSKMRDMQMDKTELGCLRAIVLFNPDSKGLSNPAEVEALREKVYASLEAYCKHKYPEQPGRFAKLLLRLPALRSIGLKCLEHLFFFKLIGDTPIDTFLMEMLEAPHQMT

SMMC-7721 cells = experiment: Gene expression by RT-PCR in SMMC-7721 cells; assay type: cell-based, human; conditions: 48 h, 10 μM rosiglitazone, 10 μM chiglitazar; for Expression of LDL receptor (LDLR): 50 μM WY14643, 5 μM 2-Bro
Text: (§1) cDNAs for human retinoid X receptor (hRXR), PPARα, PPARγ, and PPARδ were obtained by reverse transcriptase polymerase chain reaction (RT-PCR) from human liver or adipose tissues. Amplified cDNAs were cloned into pcDNA3.1 expression vector (Invitrogen, Carlsbad, CA, USA). The integrity and fidelity of all constructs made were verified by DNA sequencing. Luciferase reporter plasmids, ACOX promoter for PPARγ and pHD(X3)-luc for PPARα, were kind gifts of Drs. TM McIntyre (University of Utah, USA) and RA Rachubinski (University of Alberta, Canada), respectively. PPRE-luc for PPARδ was constructed based on the previous report by insertion of the annealed oligonucleotides having four copies of the CYP4A6 PPRE (4 × […]) into the upstream of the luciferase coding sequence in pGL3-promoter vector (Promega, Madison, WI, USA). pCMVβGal was purchased from Clontech (Palo Alto, CA, USA). The mouse 3T3-L1 preadipocyte cell line, skeletal muscle C2C12 cell line, and macrophage RAW267.4 cell line and the human osteosarcoma U2OS cell line were obtained from the American Type Culture Collection (ATCC, Rockville, MD, USA). The human hepatoma SMMC-7721 cell line was obtained from the Cell Culture Center of Chinese Academy of Medical Sciences (Beijing, China). Cell lines were cultured in medium of DMEM (3T3-L1, C2C12, and SMMC-7721), RPMI 1640 (RAW267.4), or McCoy's 5A (U2OS), containing 10% fetal bovine serum (FBS), 50 μg/mL streptomycin, and 50 units/mL penicillin at 37°C in a humidified incubator with 5% CO2.
(§2) Total RNA was extracted from cells or tissues with an RNeasy minikit (Qiagen, Valencia, CA, USA). The first-strand cDNA was synthesized using the oligo(dT) primers, followed by using SuperScript II reverse transcriptase (Invitrogen) according to the manufacturer's instructions. The PCR amplifications were performed in 10 μL of reaction mixture volume containing 0.8 μL of cDNA, 10 mM Tris-HCl (pH 8.3), 50 mM KCl, 1.5 mM MgCl2, 0.1% Triton X-100, 0.2 mM deoxynucleotide triphosphates, 0.4 μM primers, and 0.25 U of Taq polymerase (TaKaRa Biotechnology Co., Ltd, China). Taq DNA polymerase was added to each tube after a treatment of 2 min at 94°C. This was followed by 22–30 cycles of denaturation (23 s at 94°C), annealing (20 s at 55°C), extension (30 s at 72°C), and a final extension step of 2 min. PCR products were analyzed by electrophoresis on a 1.5% agarose gel stained with ethidium bromide.
(§3) Figure 1 In vitro regulation of gene expression by chiglitazar. (a) Endogenous expression of individual PPAR subtypes in cell lines. […]. The expression change of referred genes induced by different compounds was normalized against internal control (36B4 or GAPDH) and then compared with vehicle control treatment. The data shown are averaged from 3 independent experiments.

RAW267.4 cells = experiment: Gene expression by RT-PCR in RAW267.4 cells; assay type: cell-based, mouse; conditions: 48 h, 10 μM chiglitazar; for Expression of PPARα and/or PPARδ downstream gene SRA: 50 μM WY14643, 5 μM 2-Bro, compared with rosiglitazone 10 μM
Text: as §1, §2, §3

PPARα [2] = target: T2, PPARα (Homo sapiens, UniProt Q07869); experiment: PPARα transactivation reporter gene assay in U2OS cells; assay type: cell-based
T2 sequence (Q07869 1-468): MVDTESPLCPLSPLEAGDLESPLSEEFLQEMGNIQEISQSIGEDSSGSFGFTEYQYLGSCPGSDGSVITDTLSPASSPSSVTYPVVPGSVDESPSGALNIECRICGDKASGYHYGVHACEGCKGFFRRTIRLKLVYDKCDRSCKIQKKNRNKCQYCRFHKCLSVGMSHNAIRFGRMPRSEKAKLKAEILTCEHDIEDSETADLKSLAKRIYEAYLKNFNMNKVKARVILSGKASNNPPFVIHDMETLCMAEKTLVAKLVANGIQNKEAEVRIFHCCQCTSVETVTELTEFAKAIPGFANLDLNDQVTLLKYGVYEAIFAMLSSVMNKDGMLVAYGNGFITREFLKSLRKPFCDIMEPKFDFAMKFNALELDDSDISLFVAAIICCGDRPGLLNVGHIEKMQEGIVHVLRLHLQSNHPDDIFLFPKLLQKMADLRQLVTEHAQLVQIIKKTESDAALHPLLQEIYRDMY
T2 sequence (P19793 1-462 partner): T1 sequence (P19793 1-462 partner)

PPARγ [3] = target: T3, PPARγ (Homo sapiens, UniProt P37231); experiment: PPARγ transactivation reporter gene assay in SMMC-7721 cells; assay type: cell-based
T3 construct: expressed in transfected cells; host or cells: SMMC-7721 or U2OS
T3 sequence (P37231 1-505): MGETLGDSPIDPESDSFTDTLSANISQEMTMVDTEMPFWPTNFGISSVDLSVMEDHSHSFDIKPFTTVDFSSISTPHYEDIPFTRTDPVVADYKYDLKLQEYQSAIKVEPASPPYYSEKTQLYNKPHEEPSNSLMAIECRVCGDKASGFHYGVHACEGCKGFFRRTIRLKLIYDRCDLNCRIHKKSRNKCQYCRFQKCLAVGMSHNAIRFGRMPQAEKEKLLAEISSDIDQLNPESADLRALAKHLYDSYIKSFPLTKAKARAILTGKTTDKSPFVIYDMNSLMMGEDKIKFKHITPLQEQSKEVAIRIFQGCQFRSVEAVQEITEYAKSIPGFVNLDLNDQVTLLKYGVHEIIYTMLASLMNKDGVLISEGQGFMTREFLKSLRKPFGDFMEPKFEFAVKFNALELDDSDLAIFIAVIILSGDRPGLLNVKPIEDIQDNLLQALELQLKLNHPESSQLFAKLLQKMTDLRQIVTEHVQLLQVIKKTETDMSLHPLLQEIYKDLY
T3 sequence (P19793 1-462 partner): T1 sequence (P19793 1-462 partner)

PPARδ [4] = target: T1, PPARδ; experiment: PPARδ transactivation reporter gene assay in SMMC-7721 cells; assay type: cell-based
PPARγ [5] = target: T3, PPARγ; experiment: PPARγ transactivation reporter gene assay in U2OS cells; assay type: cell-based; conditions: 24 h treatment, luciferase reporter, hRXR cotransfected, ia: inactive at 10 μM
C2C12 cells = experiment: Gene expression by RT-PCR in C2C12 cells; assay type: cell-based, mouse; conditions: 48 h, 10 μM chiglitazar, 50 μM WY14643, 5 μM 2-Bro, compared with rosiglitazone 10 μM
Text: as §1
Total RNA was extracted from cells or tissues with an RNeasy minikit (Qiagen, Valencia, CA, USA). The first-strand cDNA was synthesized using the oligo(dT) primers, followed by using SuperScript II reverse transcriptase (Invitrogen) according to the manufacturer's instructions. […] PCR products were analyzed by electrophoresis on a 1.5% agarose gel stained with ethidium bromide. […]

PPARα [6] = target: T2, PPARα; experiment: PPARα transactivation reporter gene assay in SMMC-7721 cells; assay type: cell-based
rats = tested on: rats; design: method as in earlier work; conditions: same length of treatment (6 months) ref 44, 45; cited from earlier work
3T3-L1 cells = experiment: Gene expression by RT-PCR in 3T3-L1 cells; assay type: cell-based, mouse; conditions: 48 h, 10 μM rosiglitazone, 10 μM chiglitazar, vs vehicle
Text: as §1, with “The human hepatoma SMMC-7721 cell line was obtained from the Cell Culture Center of Chinese Academy of Medical Sciences (Beijing, China). Cell lines were cultured in medium of DMEM (3T3-L1, C2C12, and SMMC-7721), RPMI 1640 (RAW267.4), or McCoy's 5A (U2OS), containing 10% fetal bovine serum (FBS), 50 μg/mL streptomycin, and 50 units/mL penicillin at 37°C in a humidified incubator with 5% CO2.” left out
Total RNA was extracted from cells or tissues with an RNeasy minikit (Qiagen, Valencia, CA, USA). […] PCR products were analyzed by electrophoresis on a 1.5% agarose gel stained with ethidium bromide. […]

KKAy mice = experiment: Gene expression by RT-PCR in tissues of treated KKAy mice; assay type: in vivo, mouse; conditions: 12 days oral
Method: as §2
Male db/db mice (BKS.Cg-m +/+ LEPR^db) in 6-7 weeks were purchased from The Jackson Laboratory (Bar Harbor, ME, USA). Male KKAy and C57BL/6J mice in 8–10 weeks were obtained from the Institute of Animal Science, Chinese Academy of Medical Sciences and Peking Union Medical College (Beijing, China). Animals were randomly sorted into different treatment groups (8–10 per group). […]. Plasma glucose levels were examined at various time points by Accu-Chek Advantage II Glucose Strips (Roche Diagnostics, Basel, Switzerland) and measured by Accu-Chek Advantage (Roche Diagnostics). Animals were sacrificed 24 h after the last dosing and abdominal fat pad, liver, and skeletal muscle from KKAy mice and abdominal fat pad from db/db mice were taken for gene expression analysis.
Figure 3 In vivo regulation of gene expression by chiglitazar. […]. Equal amount of total RNA from each mouse in the same group was mixed and subjected to RT-PCR analysis for the indicated genes. […]. Total RNA was isolated from individual animal tissues and subjected to the RT-PCR analysis independently for the indicated genes.

[7] = 24 h treatment, luciferase reporter, hRXR cotransfected, ia: inactive at 10 μM
[8] = chiglitazar 20 mg kg^−1, rosiglitazone 5 mg kg^−1
[9] = max response compared with WY at 50 μM

SMILES: CCCCCCCCCCCCCCC(Br)C(=O)O (centres unmarked) [2-Bro, 2-bromohexadecanoic acid, reference compound]
- EC50 (PPARδ [1]): 9.2 ± 0.8 µM
- PPARδ % Max (PPARδ [1]; U2OS cells, max response compared with 2-Bro at 10 μM): 100%
- Expression of LDL receptor (LDLR) (SMMC-7721 cells): significantly upregulated
- Expression of PPARα and/or PPARδ downstream gene SRA (RAW267.4 cells): more significantly upregulated
- PPARα EC50 (PPARα [2]; [7]): ia
- EC50 (PPARγ [3]): 5.5 ± 1.7 µM
- PPARγ % Max (PPARγ [3]; SMMC-7721 cells, max response compared with Ros at 1 μM): 14%
- EC50 (PPARδ [4]): 5.1 ± 0.9 µM
- PPARδ % Max (PPARδ [4]; SMMC-7721 cells, max response compared with 2-Bro at 10 μM): 100%
- PPARγ EC50 (PPARγ [5]): ia
- Expression of PPARα and/or PPARδ downstream genes CPT-1a and CPT-1b (C2C12 cells): more significantly upregulated
- PPARα EC50 (PPARα [6]; [7]): ia^2

SMILES: CCc1ccc(CCOc2ccc(CC3SC(=O)NC3=O)cc2)nc1 (centres unmarked) [Pio, pioglitazone]
- Dose observed to induce heart weight increase (rats): 4 mg/kg

SMILES: CN(CCOc1ccc(CC2SC(=O)NC2=O)cc1)c1ccccn1 (centres unmarked) [Ros, rosiglitazone, reference compound]
- Expression of PPARγ downstream genes AOX, LIPC and HSL (SMMC-7721 cells; vs vehicle): upregulated
- Expression of LDL receptor (LDLR) (SMMC-7721 cells): downregulated
- Dose observed to induce heart weight increase (rats): 5 mg/kg
- Expression of PPARγ downstream gene CD36 (RAW267.4 cells; 10 μM rosiglitazone, vs vehicle): upregulated
- Expression of PPARγ downstream genes SREBP1 and adiponectin (3T3-L1 cells): upregulated
- Expression of ACADL, HSL, GLUT4 and PPARγ in liver and skeletal muscle (KKAy mice; [8]): not affected
- Expression of genes involved in PPARγ-mediated insulin sensitization in adipose tissue (KKAy mice; [8]): almost identically up-regulated
- Expression of Adiponectin and CD36 in liver and skeletal muscle (KKAy mice; rosiglitazone 5 mg kg^−1 vs chiglitazar 20 mg kg^−1): more upregulated

SMILES: Cc1cccc(Nc2cc(Cl)nc(SCC(=O)O)n2)c1C [WY, WY14643]
- Expression of LDL receptor (LDLR) (SMMC-7721 cells): downregulated
- Expression of PPARα and/or PPARδ downstream gene SRA (RAW267.4 cells): more significantly upregulated
- PPARα % Max (PPARα [2]; [9]): 100%
- Expression of PPARα and/or PPARδ downstream genes CPT-1a and CPT-1b (C2C12 cells): more significantly upregulated
- PPARα % Max (PPARα [6]; [9]): 100%
